Assays:
[1] = tested on: ADH1 WT (DNA, G4) GGGGCCGGTAGCGAGTGATAGCGAGGGAAAGACGATCGCTATCGGGCCGTAAGGAGGAAATGGGAGGTTGGGGG; test: circular dichroism; conditions: 100 mM KCl; 10 mM Tris pH 7.5, 25 °C; 5 μM DNA, 10 μM PhenDC3; slight broadening of spectra
[2] = tested on: ADH1 5_G MUT (DNA, G4) GTGGCCGGTAGCGAGTGATAGCGAGTGAAAGACGATCGCTATCGTGCCGTAACGAGGAAATGTGAGGTTGGGGG; test: circular dichroism; conditions: 100 mM KCl; 10 mM Tris pH 7.5, 25 °C; 5 μM DNA, 10 μM PhenDC3; slight broadening of spectra
[3] = tested on: ADH1 4_G MUT (DNA, G4) GTGGCCGGTAGCGAGTGATAGCGAGTGAAAGACGATCGCTATCGTGCCGTAAGGAGGAAATGTGAGGTTGGGGG; test: circular dichroism; conditions: 100 mM KCl; 10 mM Tris pH 7.5, 25 °C; 5 μM DNA, 10 μM PhenDC3; slight broadening of spectra
[4] = tested on: ADH1 5_G MUT (DNA, G4) GTGGCCGGTAGCGAGTGATAGCGAGTGAAAGACGATCGCTATCGTGCCGTAACGAGGAAATGTGAGGTTGGGGG; test: ThT fluorescence titration; conditions: 10 mM KCl; 10 mM Tris pH 7.5, room temperature; 0.5 μM ThT; apparent
[5] = tested on: ADH1 4_G MUT (DNA, G4) GTGGCCGGTAGCGAGTGATAGCGAGTGAAAGACGATCGCTATCGTGCCGTAAGGAGGAAATGTGAGGTTGGGGG; test: ThT fluorescence titration; conditions: 10 mM KCl; 10 mM Tris pH 7.5, room temperature; 0.5 μM ThT; apparent
[6] = tested on: ADH1 WT (DNA, G4) GGGGCCGGTAGCGAGTGATAGCGAGGGAAAGACGATCGCTATCGGGCCGTAAGGAGGAAATGGGAGGTTGGGGG; test: ThT fluorescence titration; conditions: 10 mM KCl; 10 mM Tris pH 7.5, room temperature; 0.5 μM ThT; apparent

| binding [1] | binding [2] | binding [3] | k [4] [µM] | k [5] [µM] | k [6] [µM] | SMILES |
| --- | --- | --- | --- | --- | --- | --- |
| yes | yes | yes |  |  |  | C[n+]1cc(NC(=O)c2ccc3ccc4ccc(C(=O)Nc5cc6ccccc6[n+](C)c5)nc4c3n2)cc2ccccc21 |
|  |  |  | 0.89 ± 0.13 | 0.76 ± 0.06 | 0.65 ± 0.04 | Cc1ccc2c(c1)sc(-c1ccc(N(C)C)cc1)[n+]2C |
